In ChEMBL document CHEMBL1151180, “Madhucosides A and B, protobassic acid glycosides from Madhuca indica with inhibitory activity on free radical release from phagocytes” (J Nat Prod, 2004):
In brackets after ≈: the same amount, converted by molar mass.

Tests used:
Neutrophil = assay: Inhibition of hypochlorous production in PMA-stimulated human neutrophils by luminol-enhanced chemiluminescence assay; assay type: functional, cell-based
[1] = Inhibition of superoxide production in PMNCs at 200 ug/mL by NBT reduction assay; assay type: functional
[2] = Inhibition of superoxide production in PMNCs by NBT reduction assay; assay type: functional

Row | Structure (SMILES) | IC50 (Neutrophil) [µg/mL] | inhibition at 200 µg/mL [1] [%] | IC50 [2] [µg/mL]
1 | C[C@@H]1O[C@@H](O[C@H]2[C@H](O)[C@@H](O[C@@H]3OC[C@@H](O)[C@H](O)[C@H]3O)[C@H](O[C@@H]3[C@@H](O)[C@H](C)O[C@@H](O[C@H]4[C@H](OC(=O)[C@]56CCC(C)(C)C[C@@H]5C5=CC[C@@H]7[C@@]8(C)C[C@H](O)[C@H](O)[C@@](C)(CO[C@@H]9O[C@H](CO)[C@@H](O)[C@H](O)[C@H]9O[C@@H]9OC[C@](O)(CO)[C@H]9O)[C@@H]8[C@H](O)C[C@@]7(C)[C@]5(C)CC6)OC[C@H](O)[C@@H]4O)[C@@H]3O)O[C@@H]2CO)[C@H](O)[C@H](O)[C@H]1O | 144 | 16 | –
2 | O=C1O[C@H]([C@@H](O)CO)C(O)=C1O [ASCORBIC ACID] | – | – | 14.1 (≈ 80.1 µM)
3 | CC(C)=C[C@H]1C[C@](C)(O)[C@H]2[C@H]3CC[C@@H]4[C@@]5(C)CC[C@H](O[C@@H]6O[C@H](CO)[C@@H](O)[C@H](O[C@@H]7O[C@H](CO)[C@@H](O)[C@H](O)[C@H]7O)[C@H]6O[C@@H]6O[C@@H](CO)[C@H](O)[C@H]6O)C(C)(C)[C@@H]5CC[C@@]4(C)[C@@]34CO[C@@]2(C4)O1 [BACOSIDE A3] | 19.8 | – | –
4 | O=c1c(O)c(-c2ccc(O)c(O)c2)oc2cc(O)cc(O)c12 [QUERCETIN] | – | – | 111 (≈ 367 µM)
